From EP4483866A1, “PHARMACEUTICAL COMPOSITIONS FOR THE TREATMENT OR PREVENTION OF CANCER” (Makrolife Biotech GmbH, priority 2023, dated 2025)

Legend:
[1] = system: HepG2, HUVEC, PaCA-2, MDA-MB-231, MCF-7, T24, AsPc-1, Panc-1; assay: Cell Viability Assay (MTT), tumor cells with MLB007R1 polarized macrophages; type: cell-based, human; conditions: for cell death: 60 µg/ml, all tumor models
Text: The following tumor models and cell lines have been used to proof the anti-tumoral properties of the derivatives of the invention: • Diagram A: HepG2 (human liver cancer cells), • Diagram B: HUVEC (human umbilical vein endothelial cells, • Diagram C: PaCA-2 (human pancreatic cancer cells), • Diagram D: MDA-MB-231 (highly aggressive, invasive and poorly differentiated triple-negative human breast cancer cells), • Diagram E: MCF-7 (human breast cancer cells), • Diagram F: T24 (human urinary bladder cancer cells), • Diagram G: AsPc-1 (human pancreatic tumor cells) and • Diagram H: Panc-1 (human pancreatic cancer cells).
In the examples, the resveratrol derivative MLB007R1 was applied at concentrations of 0 µg/ml, 10 µg/ml, 20 µg/ml, 40 µg/ml and 60 µg/ml. As a control, an underivatized agent was used at a concentration of 60 µg/ml. The dead cells were measured in percentage after 0, 12, 24 and 36 hours.
Tumor cell lines HUVEC (human umbilical vein endothelial cells), paCA-2 (human pancreatic cancer cells), MDA-MB-231 (highly aggressive, invasive and poorly differentiated triple-negative breast cancer cells), HepG2 (human liver cancer cells), MCF-7 (breast cancer cells), T24 (human urinary bladder cancer cells), AsPc-1 (human pancreatic tumor cells), Panc-1 (human pancreatic cancer cells) were seeded in 96-well plates ([…]) and divided into two groups: the untreated control group and the active compound resveratrol derivative treated group. Cells in the normal group were incubated under normal growth conditions. In the resveratrol derivative (MLB007R1) treated group, the cells were pre-incubated with differentiated and polarized macrophages (5x10^5 cells/well) for 24 hours with different final concentrations of the resveratrol derivative.
Wells were then washed three times with phosphate buffered saline (PBS) and incubated again for 4 hours with […] RPMI 1640 containing 10% fetal bovine serum. The medium was then replaced with fresh medium serially incubated with different concentrations of the lead compound and incubated with the macrophages, and the plates were incubated for 12, 24, and 36 hours. The medium containing the resveratrol derivative polarized macrophages was replaced every 12 h with freshly prepared medium. Wells were then washed three times with PBS and incubated again for 4 h, adding […] of RPMI 1640 and […] of MTT solution (5 mg/mL). After removal of the culture medium, […] of DMSO was added to dissolve the precipitate, and the absorbance at 570 nm of the resulting solutions was measured using a CODA Automated EIA Analyzer (Bio-Rad Laboratories, Hercules, CA, USA).
The cytotoxicity of the resveratrol derivative compound was evaluated on all cancer cell lines using the MTT method.

[2] = system: ovarian cancer cells (cell line A2780); assay: Viability and apoptosis of ovarian cancer cells with polarized macrophages (interference light microscopy, PI); type: cell-based, human
Experimental: Diagrams A and C show as a control the cells after treatment with DMSO.
Diagrams B and D show the cells treated with 60 µg/ml MLB007R1 after 12 h.
The present study explores the response of ovarian cancer cells to MLB007R1. MLB007R1 macrophages inhibited growth and induced death in human ovarian cancer cell lines. In a further course, A2780 cells were co-incubated with MLB007R1 derivative polarized macrophages and treated. MLB007R1 induces cell death and inhibits ovarian cancer cell growth. Treatment of A2780 cells with MLB007R1 induced cell death after 12 hours. Proliferation of A2780 cultures treated with MLB007R1 was analyzed over 12 hours of continuous treatment.
Cells were plated out and 60 µg/ml MLB007R1 treated macrophages were added to the culture medium 12 h after plating out (24 h preincubation period). The percentage of apoptotic cells was determined at the indicated time points by propidium iodide (PI) staining on semipermeabilized cells as previously described. In this assay, apoptotic cells are identified by hypodiploid DNA content resulting from DNA fragmentation. To assess viability, intact cells were harvested, stained with PI, and analyzed for their plasma membrane permeability to PI by flow cytometry. Cell number was determined by interference light microscopy. The ovarian cancer cells (A2780) were incubated with 60µg/ml MLB007R1 concentration treated macrophages. […]

MCF-7, HUVEC, HepG2 = assay: Determination of cell growth and viability (cell count, trypan blue exclusion); type: cell-based, human
Experimental: The tumor models utilized in these experiments are as follows: • Diagram A: MCF-7 (breast cancer cells), • Diagram B: HUVEC (human umbilical vein endothelial cells) and • Diagram C: HepG2 (human liver cancer cells).
Cell growth of an untreated and resveratrol derivative (MLB007R1) treated cell culture was compared. Tumor cell lines (MCF-7 (breast cancer cells), HUVEC (human umbilical vein endothelial cells) and HepG2 (human liver cancer cells)) were cultured in RPMI 1640 cell medium and exposed to 60 µg/ml resveratrol derivative polarized macrophages (10 000/ well). Cell growth, cell cycle disruption and apoptosis were assessed using the trypan blue exclusion method.
Cells were seeded in 24-well tissue culture plates (Falcon) at a concentration of 1×10^5 cells/ml and allowed to adhere overnight. […] Cell growth and viability were assessed every 12 hours. Trypsinized cells were manually counted using a hemocytometer, and cell viability was determined using the trypan blue dye exclusion assay.
Initially, cell number was measured after incubation to 200 000 cells per culture.
The kinetics of cell growth on human MCF-7 breast cancer cells were cultured and measured for 12, 24 and 36 hours in culture medium containing the indicated drug-polarized macrophages. […] Tumor cell viability and cell growth were determined using the trypan blue assay and cell count, respectively. […]

MCF-7 cells = assay: Induction of apoptosis assessed by confocal fluorescence microscopy (PI staining); type: cell-based, human; conditions: for cell death: 12h
Experimental: To confirm the flow cytometry results, the induction of apoptotic cell death by our MLB007R1 compound was examined by confocal fluorescence microscopy. MCF-7 tumor cells were treated with the compound-polarized macrophages (10 000/well) at concentrations of 0, 20, 40, and 60 µg/ml for 12 hours. Induction of apoptotic cell death was accompanied by characteristic ultrastructural changes, such as chromatin condensation, nuclear fragmentation, and collapse of the cell into membrane-bound apoptotic bodies.
Confocal laser scanning microscopy (CLSM). Analysis of apoptosis-like morphological changes was performed on cells grown on coverslips and fixed with 4% paraformaldehyde in PBS (pH 7.4) for 10 minutes at room temperature (RT). After washing in PBS, the samples were stained for nuclear labeling with 2 µg/ml PI and 0.1 mg/ml RNase for 5 minutes at RT. Coverslips were mounted on glass slides in the presence of Glycerol/PBS at a ratio of 4:1 and observed with a LEICA TCS 4D confocal laser scanning microscope equipped with an argon/cripton laser and oil immersion objectives. The excitation and emission wavelengths were 488 and 590 nm, respectively. The images were recorded in pseudocolor.

HepG2 = conditions: after 24 hours at 60 µM; cited from earlier work

Structure (SMILES)	cell death ([1]; after 12h)	cell death ([1]; after 24 hours)	cell death ([1]; after 36h)	proliferation of A2780 cultures ([2]; 12 hours of continuous treatment)	ovarian cancer cells killed by polarized macrophages ([2]; macrophages incubated in 60µg/ml, 12 h)	number of tumor cells (MCF-7, HUVEC, HepG2; 60 µg/ml, after 12 hours, polarized macrophages)	decreased cell number (MCF-7, HUVEC, HepG2; after only 12 hours of incubation)	apoptosis induction (MCF-7 cells; 20 µg/ml (B), 12 hours)	number of apoptotic cells (MCF-7 cells; 40 (C) and 60 (D) µg/ml, 12 hours)	cell death (MCF-7 cells; Diagram B: 20 µg/ml MLB007R1 treated macrophages) [%]	cell death (MCF-7 cells; Diagram C: 20 µg/ml MLB007R1 treated macrophages) [%]	cell death (MCF-7 cells; Diagram D: 60 µg/ml MLB007R1 treated macrophages) [%]	effect on tumor cells ([1]; control at 60 µg/ml, compared with resveratrol derivative)	decreased HepG2 cell number (HepG2)
C=COC(=O)COc1ccc(C=Cc2cc(OCC(=O)OC=C)cc(OCC(=O)OC=C)c2)cc1 [MLB007R1, divinyl 2,2'-((5-(4-(2-oxo-2-(vinyloxy)ethoxy)styryl)-1,3-phenylene)bis(oxy))diacetate]	70-85%	85-92%	approximately 96%	No further growth occurred	more than 80%	dramatic decrease	more than 90%	No to little apoptosis induction	increased the number of apoptotic cells	> 50	> 65	> 80	–	–
Oc1ccc(C=Cc2cc(O)cc(O)c2)cc1 [resveratrol, 3,4',5-trihydroxy-stilbene, reference compound]	–	–	–	–	–	–	–	–	–	–	–	–	significantly higher	approximately 70%
